Results on one sequence are retold here after article PMC4545587 (Biochimica et biophysica acta, 2013).

The test system of series [1] is Pseudomonas aeruginosa type 1. The series is classed as cell-based.
In another series the test system is eukaryotic cells. The following applies: cited from earlier work.

No end group written: not given here.

For KLFKRHLKWKII [SC4], the “MIC value against P. aeruginosa” value in series [1] (type 1) is ~ 18 µM. Besides, in series [1] (type 1, pH 7), the “P.a. LD50” value amounted to 0.14 µM. For the same sequence, the “lytic effect on eukaryotic cells” value with eukaryotic cells is reported as “no apparent lytic effect”.
